Measured values reported in PubChem BioAssay AID1963839 (Molecular Pharmacology Branch, DTP, NCI, 2024).

System: 817829-284-R-J1-PDC complex spheroid viability
Assay: Anticancer human tumor 817829-284-R-J1-PDC patient-derived colon adenocarcinoma cell line growth inhibition [POLQ]
Details: for IC50: curve of first compound; for viability, T/C: stronger effect = lower value
Summary of the method: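 Complex spheroid viability model combining PDC tumour cells with endothelial (HUVEC) and MSC stromal cells. Novobiocin, ART-558 or RP6685 were tested singly and in combination with standard and investigational anticancer drugs. Each was titrated in half-log steps from near clinical Cmax, or from 10 microM where Cmax was unknown.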

[1] = second compound 0.0316 µM, first compound 0.00316 µM
[2] = second compound 0.0316 µM, first compound 0.01 µM
[3] = second compound 0.0316 µM, first compound 0.0316 µM
[4] = second compound 0.0316 µM, first compound 0.1 µM
[5] = second compound 0.1 µM, first compound 0.00316 µM
[6] = second compound 0.1 µM, first compound 0.01 µM
[7] = second compound 0.1 µM, first compound 0.0316 µM
[8] = second compound 0.1 µM, first compound 0.1 µM
[9] = second compound 0.316 µM, first compound 0.00316 µM
[10] = second compound 0.316 µM, first compound 0.01 µM
[11] = second compound 0.316 µM, first compound 0.0316 µM
[12] = second compound 0.316 µM, first compound 0.1 µM
[13] = second compound 1 µM, first compound 0.00316 µM
[14] = second compound 1 µM, first compound 0.01 µM
[15] = second compound 1 µM, first compound 0.0316 µM
[16] = second compound 1 µM, first compound 0.1 µM
[17] = second compound 3.16 µM, first compound 0.00316 µM
[18] = second compound 3.16 µM, first compound 0.01 µM
[19] = second compound 3.16 µM, first compound 0.0316 µM
[20] = second compound 3.16 µM, first compound 0.1 µM
[21] = second compound 10 µM, first compound 0.00316 µM
[22] = second compound 10 µM, first compound 0.01 µM
[23] = second compound 10 µM, first compound 0.0316 µM
[24] = second compound 10 µM, first compound 0.1 µM
[25] = second compound 0.0316 µM, first compound 0.316 µM
[26] = second compound 0.0316 µM, first compound 1 µM
[27] = second compound 0.1 µM, first compound 0.316 µM
[28] = second compound 0.1 µM, first compound 1 µM
[29] = second compound 0.316 µM, first compound 0.316 µM
[30] = second compound 0.316 µM, first compound 1 µM
[31] = second compound 1 µM, first compound 0.316 µM
[32] = second compound 1 µM, first compound 1 µM
[33] = second compound 3.16 µM, first compound 0.316 µM
[34] = second compound 3.16 µM, first compound 1 µM
[35] = second compound 10 µM, first compound 0.316 µM
[36] = second compound 10 µM, first compound 1 µM
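Note: spheroids exposed to compounds for 7 days.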
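Throughout, for viability, T/C: 100% = DMSO vehicle-treated spheroids.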

What does the source list for `Cn1ncnc1[C@H]1c2n[nH]c(=O)c3cc(F)cc(c23)N[C@@H]1c1ccc(F)cc1` + Cc1cccc(N(C)C(=O)C2C(O)CCN2c2nc(C)cc(C(F)(F)F)c2C#N)c1?
IC50 (second compound 0.0316 µM): 10.2 nM; IC50 (second compound 0.1 µM): 17.9 nM; IC50 (second compound 0.316 µM): 14.2 nM; IC50 (second compound 1 µM): 6.63 nM; IC50 (second compound 3.16 µM): 12 nM; IC50 (second compound 10 µM): 6.59 nM; viability, T/C (second compound 0.0316 µM, first compound 0.000316 µM): 79.7%; viability, T/C (second compound 0.0316 µM, first compound 0.001 µM): 88.5%; viability, T/C [1]: 79%; viability, T/C [2]: 48.3%; viability, T/C [3]: 39.4%; viability, T/C [4]: 25.8%; viability, T/C (second compound 0.1 µM, first compound 0.000316 µM): 103%; viability, T/C (second compound 0.1 µM, first compound 0.001 µM): 93.2%; viability, T/C [5]: 58.9%; viability, T/C [6]: 69%; viability, T/C [7]: 39.2%; viability, T/C [8]: 30%; viability, T/C (second compound 0.316 µM, first compound 0.000316 µM): 65.8%; viability, T/C (second compound 0.316 µM, first compound 0.001 µM): 82.8%; viability, T/C [9]: 85.4%; viability, T/C [10]: 57.6%; viability, T/C [11]: 36.8%; viability, T/C [12]: 28.6%; viability, T/C (second compound 1 µM, first compound 0.000316 µM): 89.3%; viability, T/C (second compound 1 µM, first compound 0.001 µM): 97.8%; viability, T/C [13]: 68.8%; viability, T/C [14]: 42.5%; viability, T/C [15]: 46.1%; viability, T/C [16]: 29.5%; viability, T/C (second compound 3.16 µM, first compound 0.000316 µM): 99.1%; viability, T/C (second compound 3.16 µM, first compound 0.001 µM): 80%; viability, T/C [17]: 72.4%; viability, T/C [18]: 47.4%; viability, T/C [19]: 41.3%; viability, T/C [20]: 28.4%; viability, T/C (second compound 10 µM, first compound 0.000316 µM): 64.5%; viability, T/C (second compound 10 µM, first compound 0.001 µM): 86%; viability, T/C [21]: 54.8%; viability, T/C [22]: 47.1%; viability, T/C [23]: 30.4%; viability, T/C [24]: 29.7%

What does the source list for `C#Cc1c(F)ccc2cc(O)cc(-c3ncc4c(N5CC6CCC(C5)N6)nc(OCC56CCCN5CC(F)C6)nc4c3F)c12` (stereo unspecified) + Nc1ccc(C#CCN(C(=O)Cc2ncc(C(F)(F)F)cc2C(F)(F)F)c2ccc(F)cc2)nn1?
IC50 (second compound 0.0316 µM): > 10000 nM; IC50 (second compound 0.1 µM): > 10000 nM; IC50 (second compound 0.316 µM): > 10000 nM; IC50 (second compound 1 µM): > 10000 nM; IC50 (second compound 3.16 µM): > 10000 nM; IC50 (second compound 10 µM): > 10000 nM; viability, T/C [3]: 78.6%; viability, T/C [4]: 105%; viability, T/C [25]: 104%; viability, T/C [26]: 93.8%; viability, T/C (second compound 0.0316 µM, first compound 3.16 µM): 114%; viability, T/C (second compound 0.0316 µM, first compound 10 µM): 84.2%; viability, T/C [7]: 92.1%; viability, T/C [8]: 87.9%; viability, T/C [27]: 93%; viability, T/C [28]: 92.4%; viability, T/C (second compound 0.1 µM, first compound 3.16 µM): 103%; viability, T/C (second compound 0.1 µM, first compound 10 µM): 92.7%; viability, T/C [11]: 101%; viability, T/C [12]: 94.5%; viability, T/C [29]: 105%; viability, T/C [30]: 86.8%; viability, T/C (second compound 0.316 µM, first compound 3.16 µM): 116%; viability, T/C (second compound 0.316 µM, first compound 10 µM): 91.8%; viability, T/C [15]: 106%; viability, T/C [16]: 88.4%; viability, T/C [31]: 98.6%; viability, T/C [32]: 91.6%; viability, T/C (second compound 1 µM, first compound 3.16 µM): 97.9%; viability, T/C (second compound 1 µM, first compound 10 µM): 101%; viability, T/C [19]: 97.5%; viability, T/C [20]: 99.8%; viability, T/C [33]: 101%; viability, T/C [34]: 86.9%; viability, T/C (second compound 3.16 µM, first compound 3.16 µM): 93.2%; viability, T/C (second compound 3.16 µM, first compound 10 µM): 95.7%; viability, T/C [23]: 95.5%; viability, T/C [24]: 102%; viability, T/C [35]: 73.8%; viability, T/C [36]: 102%; viability, T/C (second compound 10 µM, first compound 3.16 µM): 96.3%; viability, T/C (second compound 10 µM, first compound 10 µM): 80.4%

`C=CCn1c(=O)c2cnc(Nc3ccc(N4CCN(C)CC4)cc3)nc2n1-c1cccc(C(C)(C)O)n1` + COC1C(OC(N)=O)C(O)C(Oc2ccc3c(O)c(NC(=O)c4ccc(O)c(CC=C(C)C)c4)c(=O)oc3c2C)OC1(C)C was tested. Which IC50 (second compound 0.0316 µM) did it give?
The IC50 was 161 nM.

What about the IC50 (second compound 0.1 µM) of the same compound?
Its IC50 is 144 nM.

What about the IC50 (second compound 0.316 µM) of the same compound?
The IC50 was 176 nM.

And the IC50 (second compound 1 µM)?
Its IC50 is 190 nM.

What about the IC50 (second compound 3.16 µM) of the same compound?
Its IC50 is 176 nM.

And the IC50 (second compound 10 µM)?
Its IC50 is 133 nM.

What about the viability, T/C [1] of the same compound?
Its viability, T/C is 93%.

What about the viability, T/C [2] of the same compound?
The viability, T/C was 74.8%.

And the viability, T/C [3]?
The viability, T/C was 91.3%.

What about the viability, T/C [4] of the same compound?
Its viability, T/C is 58%.

And the viability, T/C [25]?
The viability, T/C was 33.6%.

What about the viability, T/C [26] of the same compound?
Its viability, T/C is 7.07%.

What about the viability, T/C [5] of the same compound?
Its viability, T/C is 107%.

What about the viability, T/C [6] of the same compound?
The viability, T/C was 91.4%.

What about the viability, T/C [7] of the same compound?
The viability, T/C was 87.2%.

What about the viability, T/C [8] of the same compound?
Its viability, T/C is 55.5%.

And the viability, T/C [27]?
The viability, T/C was 32.3%.

What about the viability, T/C [28] of the same compound?
Its viability, T/C is 6.47%.

And the viability, T/C [9]?
Its viability, T/C is 100%.

What about the viability, T/C [10] of the same compound?
Its viability, T/C is 96.8%.

And the viability, T/C [11]?
The viability, T/C was 96.6%.

What about the viability, T/C [12] of the same compound?
The viability, T/C was 72%.

What about the viability, T/C [29] of the same compound?
The viability, T/C was 26.7%.

What about the viability, T/C [30] of the same compound?
The viability, T/C was 6%.

And the viability, T/C [13]?
The viability, T/C was 82.8%.

And the viability, T/C [14]?
The viability, T/C was 95.9%.

What about the viability, T/C [15] of the same compound?
Its viability, T/C is 110%.

And the viability, T/C [16]?
The viability, T/C was 70.6%.

What about the viability, T/C [31] of the same compound?
The viability, T/C was 32.2%.

And the viability, T/C [32]?
Its viability, T/C is 7.21%.

And the viability, T/C [17]?
The viability, T/C was 109%.

And the viability, T/C [18]?
Its viability, T/C is 107%.

What about the viability, T/C [19] of the same compound?
The viability, T/C was 83%.

And the viability, T/C [20]?
The viability, T/C was 69.7%.

And the viability, T/C [33]?
Its viability, T/C is 32.2%.

What about the viability, T/C [34] of the same compound?
The viability, T/C was 7.29%.

And the viability, T/C [21]?
The viability, T/C was 67.5%.

And the viability, T/C [22]?
The viability, T/C was 96.1%.

What about the viability, T/C [23] of the same compound?
Its viability, T/C is 69.7%.

And the viability, T/C [24]?
The viability, T/C was 55.2%.

What about the viability, T/C [35] of the same compound?
The viability, T/C was 30.8%.

And the viability, T/C [36]?
The viability, T/C was 8.11%.
